The source made the active and inactive calls. The rule behind the calls is not given here.

One may read the IC50 as the concentration that inhibits the measured activity by half.

Series [1] can be described thus: Drug uptake in human HeLa cells assessed as increase in intracellular fraction measured upto 6 hrs. It counts as ADME, cell-based.
Series [2] deals with HeLa. Nature of the series: Antiproliferative activity against human HeLa cells assessed as auger electron mediated reduction in cell viability at 18.5 kBq measured after 6 hrs by MTT assay relative to control. It counts as functional.
The nature of series [3]: Drug uptake in nucleus of human HeLa cells measured upto 6 hrs. It counts as ADME, subcellular.
Series [4] in a line: Induction of singlet oxygen production in MeOH assessed as singlet oxygen quantum yield. It counts as functional.
Series [5] relates to HeLa. Nature of the series: Antiproliferative activity against human HeLa cells assessed as auger electron mediated reduction in cell viability measured after 6 hrs by MTT assay. It counts as functional, cell-based. The conditions noted are these: dose <= 18.5 kBq, tested as the 125I-labelled form. Background: Tetrazolium dyes change colour on reduction, which living cells bring about.

Series [6] can be described thus: Fluorescence property of compound in toluene assessed as quantum yield. It counts as physicochemical.
Series [7] deals with HeLa. Briefly: Photocytotoxicity against human HeLa cells assessed as reduction in cell viability at 1600 nM preincubated for 24 hrs followed by light irradiation at 525 nm for 6 mins by MTT assay relative to control. It counts as functional.
Series [8] in a line: Fluorescence property of compound in MeOH assessed as quantum yield by spectroscopic analysis. It counts as physicochemical.
For series [9], the system named is HeLa. Briefly: Induction of DNA damage in human HeLa cells assessed as increase in gamma H2AX foci in nuclei at 18.5 kBq measured after 2 hrs by immmunofluorescence staining based analysis. It counts as functional, cell-based. The conditions noted are these: tested as the 125I-labelled form.
The nature of series [10]: Fluorescence property of compound in MeOH assessed as molar extinction coefficient. It counts as physicochemical.
A short description of series [11]: Emission property of compound in MeOH assessed as maximal wavelength. It counts as physicochemical.
Series [12] can be described thus: Induction of singlet oxygen production in MeOH assessed as singlet oxygen quantum yield at 410 nm by DPBF based assay. It counts as functional.
The nature of series [13]: Absorption property of compound in MeOH assessed as maximal wavelength. It counts as physicochemical.
Series [14] relates to HeLa. Nature of the series: Induction of DNA damage in human HeLa cells assessed as increase in gamma H2AX foci density in nucleus measured after 2 hrs by immmunofluorescence staining based analysis. It counts as functional, cell-based. The settings on record: dose <= 18.5 kBq, tested as the 125I-labelled form.
In series [15] the test system is HeLa. Briefly: Photocytotoxicity against human HeLa cells assessed as reduction in cell viability upto 1600 nM measured after 24 hrs under dark condition by MTT assay. It counts as functional, cell-based.
For series [16], the system named is HeLa. Nature of the series: Photocytotoxicity against human HeLa cells assessed as reduction in cell viability preincubated for 24 hrs followed by light irradiation at 525 nm for 6 mins by MTT assay. It counts as functional, cell-based. The settings on record: for Activity: dose <= 1600.0 nM, time 1446.0 min; for IC50: light or radiation study.
Series [17] in a line: Absorption property of compound in MeOH assessed as maximal wavelength by spectroscopic analysis. It counts as physicochemical.
Series [18] in a line: Fluorescence property of compound in MeOH assessed as molar extinction coefficient by spectroscopic analysis. It counts as physicochemical.
The subject of series [19] is HeLa. Briefly: Antiproliferative activity against human HeLa cells assessed as reduction in cell viability measured after 6 hrs by MTT assay. It counts as functional, cell-based.
The nature of series [20]: Emission property of compound in MeOH assessed as maximal wavelength by spectroscopic analysis. It counts as physicochemical.

In the case of `CC1=C([125I])C(C)=[N+]2C1=C(c1ccc(C(=O)NCCCCOc3ccc(-c4nc5ccc(-c6nc7ccc(N8CCN(C)CC8)cc7[nH]6)cc5[nH]4)cc3)cc1)c1c(C)cc(C)n1[B-]2(F)F`, the Drug uptake entry in series [1] and in series [3] was “Active” throughout. Besides, in the series on HeLa [2], the Activity was found to be 60%.

As for `O=C(O)c1c(Cl)c(Cl)c(Cl)c(Cl)c1-c1c2cc(I)c(=O)c(I)c-2oc2c(I)c(O)c(I)cc12`, in series [4], the Activity came to 0.76.

Regarding `CN(C)c1ccc2cc3ccc(N(C)C)cc3[n+](CCCCCNC(=O)c3ccc(I)cc3)c2c1`, in the series on HeLa [5], the Activity entry was “Dose-Dependent Effect”.

For `CN(C)c1ccc2cc3ccc(N(C)C)cc3[n+](CCCCCNC(=O)c3ccc([125I])cc3)c2c1`, the Activity in the series with HeLa [2] turned out to be 64%.

With `CC1=C([125I])C(C)=[N+]2C1=C(c1ccc(C(=O)NCCCCOc3ccc(-c4nc5ccc(-c6nc7ccc(N8CCN(C)CC8)cc7[nH]6)cc5[nH]4)cc3)cc1)c1c(C)c(I)c(C)n1[B-]2(F)F`, the Drug uptake result in series [1] and in series [3] was “Active” throughout. Moreover, the Activity in the series with HeLa [2] amounted to 43%.

With `CC1=C(I)C(C)=[N+]2C1=C(c1ccc(C(=O)ON3C(=O)CCC3=O)cc1)c1c(C)cc(C)n1[B-]2(F)F`, in [6], the Activity worked out at 0.11.

Turning to `CC1=C(I)C(C)=[N+]2C1=C(c1ccc(C(=O)NCCCCOc3ccc(-c4nc5ccc(-c6nc7ccc(N8CCN(C)CC8)cc7[nH]6)cc5[nH]4)cc3)cc1)c1c(C)cc(C)n1[B-]2(F)F`, the Activity is 50% with HeLa [7]; 0.06 in [8]; “Dose-Dependent Effect” with HeLa [5]; 22000 M⁻¹ cm⁻¹ in series [10]; 532 nm in [11]; 0.32 in [12]. Further, the Activity in [13] was 517 nm; in the series on HeLa [14], “Dose-Dependent Effect”; with HeLa [16], “Dose-Dependent Effect”. Further, the outcome with HeLa [9] was Active. In addition, the outcome in the series on HeLa [15] was inactive. Further, the IC50 in the series on HeLa [16] came out at 0.702 µM.

`CC1=C(I)C(C)=[N+]2C1=C(c1ccc(C(=O)NCCCCOc3ccc(-c4nc5ccc(-c6nc7ccc(N8CCN(C)CC8)cc7[nH]6)cc5[nH]4)cc3)cc1)c1c(C)c(I)c(C)n1[B-]2(F)F`: the Activity in the series with HeLa [7] is 29%; in series [8] it was 0.04; in the series with HeLa [5], “Dose-Dependent Effect”; in [17], 533 nm; in series [18], 20600 M⁻¹ cm⁻¹; in series [12], 0.41. The Activity result in the series with HeLa [14] is “Dose-Dependent Effect”; in series [20] it was 552 nm; in the series on HeLa [16], “Dose-Dependent Effect”. In addition, the result in the series with HeLa [9] was Active. For the same compound, the outcome in the series on HeLa [19] and with HeLa [15] was inactive. Moreover, the IC50 in the series with HeLa [16] was 0.195 µM.

Values taken from ChEMBL document CHEMBL5390250, “Synthesis and biological evaluation of bi-modal BODIPY-conjugated Hoechst applicable for Auger-electron and photodynamic cancer therapy” (Bioorg Med Chem Lett, 2023).
